Where “and” joins values, the source holds several entries; their conditions need not be identical. Equal entries are not always repeated.
Experiments:
[1] = for surface tension liquid-gas: Pendant drop shape; for mass density: 101 kPa, Liquid
[2] = xn = mol fraction of the nth substance listed; details: for surface tension liquid-gas: Pendant drop shape; for mass density: 101 kPa, Liquid

COCCO [2-methoxyethan-1-ol]
[1]
Details	mass density [kg/m3]	surface tension liquid-gas [mN/m]
298.15 K	960.02	30.88
313.15 K	946.17	29.42

COCCOC [1,2-dimethoxyethane] + Cc1ccc(C)c(C)c1
[2], x1 = 1
Details	mass density [kg/m3]	surface tension liquid-gas [mN/m]
298.15 K	861.38	23.93
313.15 K	845.31	22.51

COCCO [2-methoxyethan-1-ol] + Cc1cc(C)cc(C)c1
[2], x1 = 1
Details	mass density [kg/m3]	surface tension liquid-gas [mN/m]
298.15 K	960.02	30.88
313.15 K	946.17	29.42

COCCO [2-methoxyethan-1-ol] + Cc1ccc(C)c(C)c1
[2], x1 = 1
Details	mass density [kg/m3]	surface tension liquid-gas [mN/m]
298.15 K	960.02	30.88
313.15 K	946.17	29.42

Cc1cc(C)cc(C)c1 [1,3,5-trimethylbenzene]
[1]
Details	mass density [kg/m3]	surface tension liquid-gas [mN/m]
298.15 K	861.05	28.09
313.15 K	848.74	26.82

COCCOC [1,2-dimethoxyethane] + Cc1cc(C)cc(C)c1
[2]
Details	mass density [kg/m3]	surface tension liquid-gas [mN/m]
298.15 K, x1 = 0.0487	860.76	–
298.15 K, x1 = 0.0997	860.5	27.6
298.15 K, x1 = 0.1518	860.24	–
298.15 K, x1 = 0.201	860.03	27.07
298.15 K, x1 = 0.2499	859.85	–
298.15 K, x1 = 0.2978	859.68	26.59
298.15 K, x1 = 0.3484	859.56	–
298.15 K, x1 = 0.3973	859.41	26.14
298.15 K, x1 = 0.451	859.35	–
298.15 K, x1 = 0.4991	859.29	25.71
298.15 K, x1 = 0.5498	859.31	–
298.15 K, x1 = 0.5977	859.3	25.35
298.15 K, x1 = 0.6494	859.42	–
298.15 K, x1 = 0.7011	859.52	25
298.15 K, x1 = 0.7499	859.69	–
298.15 K, x1 = 0.7999	859.91	24.67
298.15 K, x1 = 0.8474	860.25	–
298.15 K, x1 = 0.9008	860.54	24.3
298.15 K, x1 = 0.9484	860.95	–
298.15 K, x1 = 1	861.38	23.93
313.15 K, x1 = 0.0504	848.29	–
313.15 K, x1 = 0.0988	847.89	26.2
313.15 K, x1 = 0.1505	847.48	–
313.15 K, x1 = 0.1996	847.11	25.69
313.15 K, x1 = 0.2474	846.78	–
313.15 K, x1 = 0.3	846.42	25.17
313.15 K, x1 = 0.3495	846.14	–
313.15 K, x1 = 0.4	845.85	24.69
313.15 K, x1 = 0.4498	845.61	–
313.15 K, x1 = 0.5002	845.34	24.24
313.15 K, x1 = 0.5502	845.18	–
313.15 K, x1 = 0.5998	845	23.84
313.15 K, x1 = 0.6509	844.85	–
313.15 K, x1 = 0.6989	844.79	23.49
313.15 K, x1 = 0.7494	844.74	–
313.15 K, x1 = 0.8	844.75	23.17
313.15 K, x1 = 0.8505	844.8	–
313.15 K, x1 = 0.8991	844.92	22.84
313.15 K, x1 = 0.9502	845.1	–
313.15 K, x1 = 1	845.28	22.51

COCCOC [1,2-dimethoxyethane]
[1]
Details	mass density	surface tension liquid-gas [mN/m]
298.15 K	861.38 kg/m3	23.93
313.15 K	845.31 kg/m3 and 845.28 kg/m3	22.51

Cc1ccc(C)c(C)c1 [1,2,4-trimethylbenzene]
[1]
Details	mass density [kg/m3]	surface tension liquid-gas [mN/m]
298.15 K	871.65	29.29
313.15 K	859.54	27.67

Cc1cc(C)cc(C)c1 [1,3,5-trimethylbenzene] + COCCOC
[2], x2 = 0
Details	mass density [kg/m3]	surface tension liquid-gas [mN/m]
298.15 K	861.05	28.09
313.15 K	848.74	26.82

Cc1cc(C)cc(C)c1 [1,3,5-trimethylbenzene] + COCCO
[2]
Details	mass density [kg/m3]	surface tension liquid-gas [mN/m]
298.15 K, x2 = 0	861.05	28.09
298.15 K, x2 = 0.0486	862.67	–
298.15 K, x2 = 0.0993	865.02	28.19
298.15 K, x2 = 0.1546	867.91	–
298.15 K, x2 = 0.2021	870.67	28.23
298.15 K, x2 = 0.2469	873.41	–
298.15 K, x2 = 0.3015	877.06	28.34
298.15 K, x2 = 0.3469	880.3	–
298.15 K, x2 = 0.4011	884.41	28.51
298.15 K, x2 = 0.45	888.41	–
298.15 K, x2 = 0.501	892.85	28.73
298.15 K, x2 = 0.5508	897.5	–
298.15 K, x2 = 0.6004	902.45	29.03
298.15 K, x2 = 0.6509	907.91	–
298.15 K, x2 = 0.7003	913.59	29.35
298.15 K, x2 = 0.7483	919.54	–
298.15 K, x2 = 0.8008	926.64	29.72
298.15 K, x2 = 0.8501	933.84	–
298.15 K, x2 = 0.9001	941.83	30.2
298.15 K, x2 = 0.9502	950.56	–
313.15 K, x2 = 0	848.74	26.82
313.15 K, x2 = 0.0518	850.28	–
313.15 K, x2 = 0.0979	852.21	26.93
313.15 K, x2 = 0.1489	854.71	–
313.15 K, x2 = 0.198	857.38	26.91
313.15 K, x2 = 0.2497	860.47	–
313.15 K, x2 = 0.3009	863.78	26.97
313.15 K, x2 = 0.349	867.13	–
313.15 K, x2 = 0.3988	870.82	27.02
313.15 K, x2 = 0.4527	875.14	–
313.15 K, x2 = 0.5005	879.25	27.13
313.15 K, x2 = 0.5497	883.79	–
313.15 K, x2 = 0.6003	888.79	27.36
313.15 K, x2 = 0.6491	893.96	–
313.15 K, x2 = 0.6995	899.77	27.67
313.15 K, x2 = 0.7498	906.04	–
313.15 K, x2 = 0.8001	912.79	28.01
313.15 K, x2 = 0.8374	918.17	–
313.15 K, x2 = 0.9006	928.15	28.55
313.15 K, x2 = 0.9491	936.64	–

Cc1ccc(C)c(C)c1 [1,2,4-trimethylbenzene] + COCCOC
[2]
Details	mass density [kg/m3]	surface tension liquid-gas [mN/m]
298.15 K, x2 = 0	871.65	29.29
298.15 K, x2 = 0.0488	871.13	–
298.15 K, x2 = 0.103	870.57	28.71
298.15 K, x2 = 0.1497	870.09	–
298.15 K, x2 = 0.205	869.53	28.11
298.15 K, x2 = 0.2496	869.07	–
298.15 K, x2 = 0.3006	868.54	27.54
298.15 K, x2 = 0.3515	868.02	–
298.15 K, x2 = 0.398	867.54	26.97
298.15 K, x2 = 0.4492	867.02	–
298.15 K, x2 = 0.5005	866.49	26.43
298.15 K, x2 = 0.5491	865.99	–
298.15 K, x2 = 0.601	865.46	25.9
298.15 K, x2 = 0.649	864.97	–
298.15 K, x2 = 0.6979	864.48	25.42
298.15 K, x2 = 0.7506	863.94	–
298.15 K, x2 = 0.7977	863.46	24.92
298.15 K, x2 = 0.8501	862.93	–
298.15 K, x2 = 0.9018	862.41	24.41
298.15 K, x2 = 0.9463	861.95	–
313.15 K, x2 = 0	859.54	27.67
313.15 K, x2 = 0.0482	858.88	–
313.15 K, x2 = 0.1004	858.17	–
313.15 K, x2 = 0.1019	–	27.02
313.15 K, x2 = 0.1494	857.51	–
313.15 K, x2 = 0.1999	856.82	–
313.15 K, x2 = 0.2002	–	26.43
313.15 K, x2 = 0.2495	856.16	–
313.15 K, x2 = 0.2999	855.48	–
313.15 K, x2 = 0.3004	–	25.85
313.15 K, x2 = 0.353	854.74	–
313.15 K, x2 = 0.4007	–	25.26
313.15 K, x2 = 0.4015	854.06	–
313.15 K, x2 = 0.4557	853.31	–
313.15 K, x2 = 0.4991	–	24.73
313.15 K, x2 = 0.4996	852.68	–
313.15 K, x2 = 0.5499	851.99	–
313.15 K, x2 = 0.5989	851.29	–
313.15 K, x2 = 0.6006	–	24.23
313.15 K, x2 = 0.6513	850.53	–
313.15 K, x2 = 0.7002	–	23.77
313.15 K, x2 = 0.7005	849.81	–
313.15 K, x2 = 0.7508	849.12	–
313.15 K, x2 = 0.7999	–	23.32
313.15 K, x2 = 0.8	848.38	–
313.15 K, x2 = 0.8503	847.65	–
313.15 K, x2 = 0.9007	–	22.94
313.15 K, x2 = 0.9008	846.87	–
313.15 K, x2 = 0.9493	846.16	–

Cc1ccc(C)c(C)c1 [1,2,4-trimethylbenzene] + COCCO
[2]
Details	mass density [kg/m3]	surface tension liquid-gas [mN/m]
298.15 K, x2 = 0	871.65	29.29
298.15 K, x2 = 0.0507	873.14	–
298.15 K, x2 = 0.0976	875.08	29.36
298.15 K, x2 = 0.154	877.75	–
298.15 K, x2 = 0.2031	880.31	29.36
298.15 K, x2 = 0.2556	883.31	–
298.15 K, x2 = 0.3021	886.13	29.35
298.15 K, x2 = 0.3482	889.1	–
298.15 K, x2 = 0.3999	892.67	29.44
298.15 K, x2 = 0.453	896.6	–
298.15 K, x2 = 0.5015	900.39	29.57
298.15 K, x2 = 0.5513	904.61	–
298.15 K, x2 = 0.6035	909.35	29.78
298.15 K, x2 = 0.6526	914.1	–
298.15 K, x2 = 0.7033	919.38	30.03
298.15 K, x2 = 0.7534	924.98	–
298.15 K, x2 = 0.7974	930.26	30.34
298.15 K, x2 = 0.8455	936.54	–
298.15 K, x2 = 0.9014	944.31	30.61
298.15 K, x2 = 0.9507	951.9	–
313.15 K, x2 = 0	859.54	27.67
313.15 K, x2 = 0.0494	860.68	–
313.15 K, x2 = 0.1019	862.75	27.78
313.15 K, x2 = 0.15	864.92	–
313.15 K, x2 = 0.2002	867.4	27.72
313.15 K, x2 = 0.2486	869.95	–
313.15 K, x2 = 0.3004	873	27.72
313.15 K, x2 = 0.3507	876.1	–
313.15 K, x2 = 0.4007	879.45	27.79
313.15 K, x2 = 0.4502	883.02	–
313.15 K, x2 = 0.4991	886.8	27.84
313.15 K, x2 = 0.5513	891.2	–
313.15 K, x2 = 0.6006	895.56	28.03
313.15 K, x2 = 0.653	900.55	–
313.15 K, x2 = 0.7002	905.44	28.29
313.15 K, x2 = 0.7504	910.91	–
313.15 K, x2 = 0.7999	916.79	28.59
313.15 K, x2 = 0.8496	923.25	–
313.15 K, x2 = 0.9007	930.3	28.96
313.15 K, x2 = 0.9504	937.74	–

From the NIST ThermoML archive (doi:10.1021/je050484k)
